Measurements reported in ChEMBL document CHEMBL5257100, “Discovery and development of benzene sulfonamide derivatives as anti-hepatic fibrosis agents” (Bioorg Med Chem Lett, 2023).

Assay: Anti-hepatic fibrosis activity in human LX2 cells assessed as inhibition of COL1A1 promoter activity at 25 micromol/L by luciferase reporter assay relative to control
Type: functional
Settings: LX-2, dose 25 µmol/L

| SMILES | inhibition at 25 µM [%] |
| --- | --- |
| COc1cccc(NCc2ccccc2NS(=O)(=O)c2cccc([N+](=O)[O-])c2)c1 | 23.2 |
| Cc1ccc(S(=O)(=O)Nc2ccccc2CNc2cc(Cl)c(Cl)c(Cl)c2)cc1 | 3.4 |
| O=S(=O)(Nc1ccccc1CNc1cc(Cl)c(Cl)c(Cl)c1)c1ccc(C(F)(F)F)cc1 | 42.4 |
| O=C(O[C@@H]1Cc2c(O)cc(O)cc2O[C@@H]1c1cc(O)c(O)c(O)c1)c1cc(O)c(O)c(O)c1 [EPIGALOCATECHIN GALLATE] | 25.3 |
| CC[C@H]1[C@@H](O)[C@@H]2[C@H](CC[C@]3(C)[C@@H]([C@H](C)CCC(=O)O)CC[C@@H]23)[C@@]2(C)CC[C@@H](O)C[C@@H]12 [OBETICHOLIC ACID] | 7.9 |
| COc1ccc(C(F)(F)F)cc1NC(=O)Nc1ccccc1NS(=O)(=O)c1ccc([N+](=O)[O-])cc1 | 21.5 |
| O=C(Nc1cc(C(F)(F)F)ccc1Cl)Nc1ccccc1NS(=O)(=O)c1cccc([N+](=O)[O-])c1 | 21.3 |
| Cc1cccc(S(=O)(=O)Nc2ccccc2CNc2cc(Cl)c(Cl)c(Cl)c2)c1 | 2.2 |
| O=C(Nc1ccccc1NS(=O)(=O)c1ccc([N+](=O)[O-])cc1)c1cc(Cl)ccc1Cl | 26.5 |
| COc1cccc(S(=O)(=O)Nc2ccccc2NC(=O)Nc2cc(Cl)c(Cl)c(Cl)c2)c1 | 16.9 |
| O=C(Nc1ccc(Cl)cc1Cl)Nc1ccccc1NS(=O)(=O)c1cccc(OC(F)(F)F)c1 | 26.2 |
| Cc1cccc(S(=O)(=O)Nc2ccccc2NC(=O)Nc2cc(Cl)c(Cl)c(Cl)c2)c1 | 24.9 |
| O=S(=O)(Nc1ccccc1CNc1cc(Cl)c(Cl)c(Cl)c1)c1ccc(OC(F)(F)F)cc1 | 42.4 |
| O=[N+]([O-])c1ccc(S(=O)(=O)Nc2ccccc2CNc2ccc(F)c(Cl)c2)cc1 | 34.2 |
| COc1ccc(C(=O)Nc2ccccc2NS(=O)(=O)c2cccc([N+](=O)[O-])c2)cc1 | 33.6 |
| Cc1ccc(NCc2ccccc2NS(=O)(=O)c2cccc([N+](=O)[O-])c2)cc1 | 14.7 |
| O=C(Nc1ccccc1NS(=O)(=O)c1cccc([N+](=O)[O-])c1)c1cc(Cl)ccc1Cl | 24.6 |
| O=C(Nc1ccccc1NS(=O)(=O)c1cccc([N+](=O)[O-])c1)c1ccc(F)c(Cl)c1 | 37.1 |
| O=C(Nc1cc(C(F)(F)F)ccc1Cl)Nc1ccccc1NS(=O)(=O)c1ccc([N+](=O)[O-])cc1 | 39.4 |
| O=[N+]([O-])c1cccc(S(=O)(=O)Nc2ccccc2CNc2cc(F)ccc2Cl)c1 | 29.8 |
| O=C(Nc1cccc(C(F)(F)F)c1)Nc1ccccc1NS(=O)(=O)c1cccc([N+](=O)[O-])c1 | 22.8 |
| O=C(Nc1ccc(Cl)c(Cl)c1)Nc1ccccc1NS(=O)(=O)c1cccc([N+](=O)[O-])c1 | 21.6 |
| O=C(Nc1ccc(Cl)cc1Cl)Nc1ccccc1NS(=O)(=O)c1cccc([N+](=O)[O-])c1 | 29.8 |
| Cc1cccc(S(=O)(=O)Nc2ccccc2NC(=O)c2cc(Cl)c(Cl)c(Cl)c2)c1 | 15.3 |
| O=S(=O)(Nc1ccccc1CNc1cc(Cl)c(Cl)c(Cl)c1)c1cccc(C(F)(F)F)c1 | 37.3 |
| COc1cccc(S(=O)(=O)Nc2ccccc2CNc2cc(Cl)c(Cl)c(Cl)c2)c1 | 11.9 |
| COc1ccc(S(=O)(=O)Nc2ccccc2CNc2cc(Cl)c(Cl)c(Cl)c2)cc1 | 1.2 |
